From PMC3048208 (British Journal of Cancer, 2011)
“Also recorded” adds a separate entry of the source. Structures can show the parent of a compound that is named as a salt. Where two headings read alike, the source gives them in different places.

Columns and labels:
[1] = Plasma pharmacokinetics of SB939 in patients, LC–MS/MS, non-compartmental; assay type: in vivo, human; conditions: for AUC(0-inf) / Cmax / half-life / Tmax: human, plasma
Procedure: Pre-dose PK assessment was also performed on day 15 of treatment.
Whole blood was collected into a 3-ml blood tubes containing K2EDTA anti-coagulant and centrifuged at 1000 g for 10 min at 4°C. Plasma was kept as an aliquot and frozen at −80°C. […] The samples were centrifuged at 1200 g for 10 min at 4°C, and the supernatant was stored at −80°C until analysis at MPI Research, Mattawan, MI, USA. Pharmacokinetic parameters were calculated by a non-compartmental method using WinNonlin 4.0 software (Pharsight Corporation, Mountain View, CA, USA). Peak plasma concentration (Cmax) and time to peak concentration (Tmax) were estimated from the plasma drug concentration–time curve. The elimination half-life (T1/2) during the log-linear terminal phase was calculated from the elimination rate constant determined by a linear regression analysis. The area under the concentration time curve extrapolated to infinity (AUC0−∞) was calculated by the log-linear trapezoidal method for the observed values, with extrapolation to infinity including at least three points on the terminal phase.

advanced solid tumours = assay: Anti-tumour activity (RECIST 1.0); assay type: in vivo, human; conditions: for Period of disease stabilisation: colorectal carcinoma patient
Procedure: For patients with measurable disease at baseline, response was assessed using the Response and Evaluation Criteria in Solid Tumours version 1.0 ([Therasse et al, 2000]).

dog = conditions: 3 days per week in a 28-day cycle; cited from earlier work
cancer cells = tested on: cancer cells; set-up: method as in Novotny-Diermayr et al, 2010; conditions: ref Novotny-Diermayr et al, 2010; cited from earlier work
class I, II and IV HDACs = conditions: in vitro; ref Novotny-Diermayr et al, 2010; cited from earlier work
[2] = oral, 10 mg, Day 1, dose level 1, 10 mg, 3 days every 2 weeks
[3] = oral, 10 mg, Day 1, dose level 2, 10 mg
[4] = oral, 10 mg, Day 3 or 5, dose level 1, 10 mg, 3 days every 2 weeks
[5] = oral, 10 mg, Day 3 or 5, dose level 2, 10 mg
[6] = oral, 20 mg, Day 1, dose level 3, 20 mg
[7] = oral, 20 mg, Day 3 or 5, dose level 3, 20 mg
[8] = oral, 30 mg, Day 1, dose level 4, 30 mg
[9] = oral, 30 mg, Day 3 or 5, dose level 4, 30 mg
[10] = oral, 50 mg, Day 1, dose level 5, 50 mg
[11] = oral, 50 mg, Day 3 or 5, dose level 5, 50 mg
[12] = oral, 60 mg, Day 1, dose level 5.5, 60 mg
[13] = oral, 60 mg, Day 3 or 5, dose level 5.5, 60 mg
[14] = oral, 70 mg, Day 1, dose level 6, 70 mg
[15] = oral, 70 mg, Day 3 or 5, dose level 6, 70 mg
[16] = oral, 90 mg, Day 1, dose level 7, 90 mg
[17] = oral, 90 mg, Day 3 or 5, dose level 7, 90 mg

In the case of CCCCc1nc2cc(/C=C/C(=O)NO)ccc2n1CCN(CC)CC [SB939, 3-[2-butyl-1-(2-diethylaminoethyl)-1H-benzoimidazol-5-yl]-N-hydroxyacrylami-hydrochloride], the “Dose proportionality of mean AUC” value ([1]; between 10 and 90 mg) is reported as “dose-proportional increases in AUC; also recorded: increased dose proportionally”, the “Accumulation on Day 5 compared with Day 1” value ([1]; daily x 5 dosing) is reported as “no accumulation” and the AUC(0-inf) [1, 2] is reported as 127 ng·h/mL. It also gave a Cmax [1, 2] of 14.6 ng/mL, a half-life ([1]; oral, 10 mg, Day 1, dose level 1, 10 mg, 3 days every 2 weeks, read-out: T1/2, mean (converted)) of 7.1 h and a Tmax ([1]; oral, 10 mg, Day 1, dose level 1, 10 mg, 3 days every 2 weeks, read-out: Tmax, mean) of 2.5 h. The AUC(0-inf) [1, 3] was 137 ng·h/mL, the Cmax [1, 3] was 19.5 ng/mL and the half-life ([1]; oral, 10 mg, Day 1, dose level 2, 10 mg, read-out: T1/2, mean (converted)) was 8.6 h. The Tmax ([1]; oral, 10 mg, Day 1, dose level 2, 10 mg, read-out: Tmax, mean) was 1.1 h, the AUC(0-inf) [1, 4] was 147 ng·h/mL and the Cmax [1, 4] was 18.3 ng/mL. It also gave a half-life ([1]; oral, 10 mg, Day 3 or 5, dose level 1, 10 mg, 3 days every 2 weeks, read-out: T1/2, mean (converted)) of 8.3 h, a Tmax ([1]; oral, 10 mg, Day 3 or 5, dose level 1, 10 mg, 3 days every 2 weeks, read-out: Tmax, mean) of 1.3 h and an AUC(0-inf) [1, 5] of 188 ng·h/mL. The Cmax [1, 5] was 23.3 ng/mL, the half-life ([1]; oral, 10 mg, Day 3 or 5, dose level 2, 10 mg, read-out: T1/2, mean (converted)) was 8.1 h and the Tmax ([1]; oral, 10 mg, Day 3 or 5, dose level 2, 10 mg, read-out: Tmax, mean) was 1.3 h. The AUC(0-inf) [1, 6] was 244 ng·h/mL, the Cmax [1, 6] was 45.9 ng/mL and the half-life ([1]; oral, 20 mg, Day 1, dose level 3, 20 mg, read-out: T1/2, mean (converted)) was 5.9 h. The Tmax ([1]; oral, 20 mg, Day 1, dose level 3, 20 mg, read-out: Tmax, mean) was 1.5 h, the AUC(0-inf) [1, 7] was 424 ng·h/mL and the Cmax [1, 7] was 51.3 ng/mL. The half-life ([1]; oral, 20 mg, Day 3 or 5, dose level 3, 20 mg, read-out: T1/2, mean (converted)) was 7.7 h, the Tmax ([1]; oral, 20 mg, Day 3 or 5, dose level 3, 20 mg, read-out: Tmax, mean) was 1.6 h and the AUC(0-inf) [1, 8] was 384 ng·h/mL. For the same compound, the Cmax [1, 8] was 55.8 ng/mL, the half-life ([1]; oral, 30 mg, Day 1, dose level 4, 30 mg, read-out: T1/2, mean (converted)) was 8.6 h and the Tmax ([1]; oral, 30 mg, Day 1, dose level 4, 30 mg, read-out: Tmax, mean) was 1.8 h. The AUC(0-inf) [1, 9] was 544 ng·h/mL, the Cmax [1, 9] was 74.3 ng/mL and the half-life ([1]; oral, 30 mg, Day 3 or 5, dose level 4, 30 mg, read-out: T1/2, mean (converted)) was 8.8 h. The Tmax ([1]; oral, 30 mg, Day 3 or 5, dose level 4, 30 mg, read-out: Tmax, mean) was 1.6 h, the AUC(0-inf) [1, 10] was 661 ng·h/mL and the Cmax [1, 10] was 124 ng/mL. The half-life ([1]; oral, 50 mg, Day 1, dose level 5, 50 mg, read-out: T1/2, mean (converted)) was 5.6 h, the Tmax ([1]; oral, 50 mg, Day 1, dose level 5, 50 mg, read-out: Tmax, mean) was 1.6 h and the AUC(0-inf) [1, 11] was 794 ng·h/mL. It also gave a Cmax [1, 11] of 101 ng/mL, a half-life ([1]; oral, 50 mg, Day 3 or 5, dose level 5, 50 mg, read-out: T1/2, mean (converted)) of 8.9 h and an AUC(0-inf) [1, 12] of 1030 ng·h/mL. It also gave a Cmax [1, 12] of 210 ng/mL, a half-life ([1]; oral, 60 mg, Day 1, dose level 5.5, 60 mg, read-out: T1/2, mean (converted)) of 6.7 h and a Tmax ([1]; oral, 60 mg, Day 1, dose level 5.5, 60 mg, read-out: Tmax, mean) of 1.2 h. For the same compound, the AUC(0-inf) [1, 13] was 1630 ng·h/mL, the Cmax [1, 13] was 262 ng/mL and the half-life ([1]; oral, 60 mg, Day 3 or 5, dose level 5.5, 60 mg, read-out: T1/2, mean (converted)) was 6.9 h. For the same compound, the Tmax ([1]; oral, 60 mg, Day 3 or 5, dose level 5.5, 60 mg, read-out: Tmax, mean) was 1.3 h, the AUC(0-inf) [1, 14] was 1050 ng·h/mL and the Cmax [1, 14] was 178 ng/mL. The half-life ([1]; oral, 70 mg, Day 1, dose level 6, 70 mg, read-out: T1/2, mean (converted)) was 7 h, the Tmax ([1]; oral, 70 mg, Day 1, dose level 6, 70 mg, read-out: Tmax, mean) was 1.6 h and the AUC(0-inf) [1, 15] was 1130 ng·h/mL. For the same compound, the Cmax [1, 15] was 160 ng/mL, the half-life ([1]; oral, 70 mg, Day 3 or 5, dose level 6, 70 mg, read-out: T1/2, mean (converted)) was 6.4 h and the Tmax ([1]; oral, 70 mg, Day 3 or 5, dose level 6, 70 mg, read-out: Tmax, mean) was 1.5 h. It also gave an AUC(0-inf) [1, 16] of 1130 ng·h/mL, a Cmax [1, 16] of 229 ng/mL and a half-life ([1]; oral, 90 mg, Day 1, dose level 7, 90 mg, read-out: T1/2, mean (converted)) of 6.4 h. For the same compound, the Tmax ([1]; oral, 90 mg, Day 1, dose level 7, 90 mg, read-out: Tmax, mean) was 1 h, the AUC(0-inf) [1, 17] was 1230 ng·h/mL and the Cmax [1, 17] was 116 ng/mL. For the same compound, the half-life ([1]; oral, 90 mg, Day 3 or 5, dose level 7, 90 mg, read-out: T1/2, mean (converted)) was 6.1 h, the Tmax ([1]; oral, 90 mg, Day 3 or 5, dose level 7, 90 mg, read-out: Tmax, mean) was 1.5 h and the Tmax ([1]; po, 10 to 90 mg oral, read-out: Tmax, range over dose levels) was 1 to 2.5 h. For the same compound, the half-life ([1]; po, 10 to 90 mg oral, read-out: Elimination (terminal) half-life, range over dose levels) was 5.6 to 8.9 h, the Objective tumour responses (advanced solid tumours; 31 evaluable patients) was “No objective tumour responses” and the “Period of disease stabilisation” value (advanced solid tumours; dose level 2) was 8.1 months. The “Period of disease stabilisation” value (advanced solid tumours; dose level 3) was 10.8 months, the “Period of disease stabilisation” value (advanced solid tumours; dose level 4) was 7.4 months and the “Disease stabilisation of >6 months, no. of patients” value (advanced solid tumours; metastatic colorectal carcinoma) was “Three”. For the same compound, the “Best response stable disease” value (advanced solid tumours; of the 31 evaluable) was 32%, the “Best response stable disease, no. of patients” value (advanced solid tumours; of the 31 evaluable) was “Ten” and the Disease progression (advanced solid tumours; of the 31 evaluable) was 68%. The “Disease progression, no. of patients” value (advanced solid tumours; of the 31 evaluable) was 21, the “Median duration of disease control” value (advanced solid tumours; patients with SD) was 5.7 months and the “Range of duration of disease control” value (advanced solid tumours; patients with SD) was 1.8–10.8 months. For the same compound, the “No observed adverse effect level” value (dog) was 60 mg m^−2 per day, the “Immunoblot changes after treatment” value (cancer cells) was “accumulation of acetylated histone H3 (AcH3) and acetylated α-tubulin, as well as increased expression levels of the cyclin dependant kinase inhibitor p21” and the “Selectivity for class I, II and IV HDACs compared with class III HDACs” value (class I, II and IV HDACs) was greater than 1000 fold.
